Where a name gives a salt, the structure may show the parent alone.
Molecular target: T1, CXCR4-CXCL12 binding (Homo sapiens, UniProt P48061)
T1 construct: expressed in transfected cells
Assay: Inhibition of CXCL12-TR binding to CXCR4-GFP (FRET)
Details: 10 μM; Table 2
Description: Study of the changes of CXCR4-CXCL12 binding was achieved by the energy transfer technique^10,11.
Binding of Texas red-labelled CXCL12 with CXCR4-GFP fused receptor^11 induces fluorescence resonance energy transfer (FRET), which can be monitored by the reduction of GFP fluorescence emission. The characterization of CXCL12 neutraligands was evaluated in two conditions, differing by the sequence of addition of molecules. Reduction of GFP fluorescence emission was more important when neutraligands were preincubated (30 min) […] prior to the addition to cells.
The CXCR4 antagonist, T134 (20 μM) was used as a control in both incubation protocols. Data obtained were consistent with a binding to the chemokine and not to its receptor. Consequently, all selected compounds are indeed CXCL12 chemokine neutraligands and behave as chalcone-4. The neutralizing properties of the compounds are thus confirmed.

T1 sequence (P48061 22-89 limits assumed): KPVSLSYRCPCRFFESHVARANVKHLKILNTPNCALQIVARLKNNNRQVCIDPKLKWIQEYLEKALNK

Compound	inhibition at 10 µM
COc1cc(-c2cc(-c3ccc(C(C)C)cc3)nc(=O)[nH]2)ccc1O [(4), 4-(4-isopropylphenyl)-6-(4-hydroxy-3-methoxyphenyl)-pyrimidin-2(1H)-one]	35 ± 4%
COc1ccc(-c2cc(-c3ccc(O)c(OC)c3)[nH]c(=O)n2)cc1 [(2), 4-(4-methoxyphenyl)-6-(4-hydroxy-3-methoxyphenyl)-pyrimidin-2(1H)-one]	96 ± 3%
COc1cccc(-c2cc(-c3ccc(Cl)cc3)nc(=O)[nH]2)c1 [compound (C), 4-(4-chlorophenyl)-6-(3-methoxyphenyl)pyrimidin-2(1H)-one, reference compound]	10 ± 5%
O=c1nc(-c2ccc(Cl)cc2)cc(-c2ccc(O)cc2)[nH]1 [compound (A), 4-(4-chlorophenyl)-6-(4-hydroxyphenyl)pyrimidin-2(1H)-one, reference compound]	4.3 ± 3%
O=c1nc(-c2ccc(Cl)cc2)cc(-c2ccccc2)[nH]1 [compound (B), 4-(4-chlorophenyl)-6-phenylpyrimidin-2(1H)-one, reference compound]	19 ± 7%
COc1cc(-c2cc(-c3ccccc3Cl)nc(=O)[nH]2)ccc1O [(7), 4-(2-chlorophenyl)-6-(4-hydroxy-3-methoxyphenyl)pyrimidin-2(11H)-one]	62 ± 5%
COc1ccc(-c2cc(-c3ccc(Cl)cc3)nc(=O)[nH]2)cc1O [(10), 4-(4-chlorophenyl)-6-(3-hydroxy-4-methoxyphenyl)pyrimidin-2(1H)-one]	39 ± 7%
COc1cc(-c2cc(-c3ccc(O)cc3)nc(=O)[nH]2)ccc1O [(3), 4-(4-hydroxyphenyl)-6-(4-hydroxy-3-methoxyphenyl)-pyrimidin-2(1H)-one]	53 ± 6%
COc1cc(-c2cc(-c3ccccc3)nc(=O)[nH]2)ccc1O [(8), 4-(phenyl)-6-(4-hydroxy-3-methoxyphenyl)-pyrimidin-2(1H)-one]	46 ± 8%
O=c1nc(-c2ccc(Cl)cc2)cc(-c2ccc(O)c(OC(F)(F)F)c2)[nH]1 [(9), 4-(4-chlorophenyl)-6-(4-hydroxy-3-(trifluoromethoxy)phenyl)pyrimidin-2(1H)-one]	52 ± 10%
COc1cc(-c2cc(-c3ccc(F)cc3)nc(=O)[nH]2)ccc1O [(5), 4-(4-fluorophenyl)-6-(4-hydroxy-3-methoxyphenyl)pyrimidin-2(1H)-one]	46 ± 4%

Same assay, conditions: 10 μM; Table 3

Compound	inhibition at 10 µM
COc1ccc(-c2cc(-c3ccc(O)c(C)c3)nc(=O)[nH]2)cc1OC [(E), 4-(4-hydroxy-3-methylphenyl)-6-(4-methoxy-3-methoxyphenyl)pyrimidin-2(1H)-one, reference compound]	1.8 ± 0.7%
COc1ccc(-c2cc(-c3ccc(Cl)cc3)nc(=O)[nH]2)cc1OC [(D), 4-(4-chlorophenyl)-6-(4-methoxy-3-methoxyphenyl)pyrimidin-2(1H)-one, reference compound]	26 ± 1%
COc1cc(-c2cc(-c3ccc(O)c(C)c3)nc(=O)[nH]2)ccc1O [(59)]	83 ± 2%

Same assay, conditions: 10 μM; Table 4

Compound	inhibition at 10 µM
COc1cc(-c2cc(-c3ccco3)nc(=O)[nH]2)ccc1O [(28), 4-(furan-2-yl)-6-(4-hydroxy-3-methoxyphenyl)pyrimidin-2(1H)-one]	44 ± 1%
COc1cc(-c2cc(-c3ccc(Cl)s3)nc(=O)[nH]2)ccc1O [(33), 4-(5-chlorothiophen-2-yl)-6-(4-hydroxy-3-methoxyphenyl)pyrimidin-2(1H)-one]	58 ± 15%
COc1cc(-c2cc(-c3ccc[nH]3)nc(=O)[nH]2)ccc1O [(60)]	53 ± 14%

Same assay, conditions: deduced from comparative examples

Compound	Affinity for CXCL12 (SAR)
COc1cccc(-c2cc(-c3ccc(Cl)cc3)nc(=O)[nH]2)c1 [compound (C), 4-(4-chlorophenyl)-6-(3-methoxyphenyl)pyrimidin-2(1H)-one, reference compound]	loss of affinity
O=c1nc(-c2ccc(Cl)cc2)cc(-c2ccc(O)cc2)[nH]1 [compound (A), 4-(4-chlorophenyl)-6-(4-hydroxyphenyl)pyrimidin-2(1H)-one, reference compound]	loss of affinity

Tested on: not given
Assay: not given
Details: not given

Compound	melting point
COc1cc(-c2cc(-c3ccc(Cl)cc3)nc(=O)[nH]2)ccc1C(=O)O [(27), 4-(6-(4-chlorophenyl)-2-oxo-2,3-dihydropyrimidin-4-yl)-2-methoxybenzoic Acid]	257 to 261 °C
COc1cc(-c2cc(-c3ccc(N(C)C)nc3)nc(=O)[nH]2)ccc1O.Cl	257 to 260 °C
COc1cc(-c2cc(-c3ccc(N4CCN(C)CC4)cc3)nc(=O)[nH]2)ccc1O (as salt: hydrochloride)	300 to 303 °C
COc1cc(-c2cc(-c3ccc(N4CCNCC4)cc3)nc(=O)[nH]2)ccc1O.Cl	117 to 124 °C
Cl.NCCOc1cc(-c2cc(-c3ccc(Cl)cc3)nc(=O)[nH]2)ccc1O	272 to 276 °C

From patent US11046657B2, “Pyrimidinone derivatives and uses thereof to neutralize the biological activity of chemokines” (Centre National de la Recherche Scientifique (CNRS), priority 2016, dated 2021)
